Assay type in all cases: cell-based, influenza A virus subtype H1N1
One assay relates to influenza A/PR/8 (H1N1). In words: Plaque assay of tannic acid against influenza A/PR/8 (H1N1) on MDCK cells. How it is done:
(§1) Tannic acid was assayed for inhibitory activity against influenza virus as follows.
(§2) As influenza virus strains to be tested, influenza A subtype H1N1 viruses A/PR/8 (H1N1) and A/WSN (H1N1) as well as the WHO standard strain influenza A (H1N1) (A/California/O4/09), which was responsible for the declaration of the 2009 pandemic, were used.
(§3) Tannic acid was used as a sample in the following procedure.
(§4) The MDCK (Mardine Darbine Canine Kidney) cell line was inoculated at a density of 1.5×10^6 cells/mL into 6-well plates which were then incubated at 37° C. for 24 his in a 5% CO2 atmosphere. Separately, tannic acid was diluted to 100 mg/ml (1×) in an injection solution. The dilution was subjected to serial 10-fold dilutions. The specimens thus obtained were added in an amount of 90 μL per well to 96-well plates. 10 uL of an influenza virus sample was added to each well, incubated for 10 min, and 10-fold diluted with PBS. The MDCK cell line which had grown to confluence on the plates was infected with 1 mL of the dilution and incubated for 1 hr. For an “infection+non-administration” control, the MDCK cell line was infected with influenza virus which had not been treated with tannic acid.
(§5) Thereafter, the medium was removed, and a mixture of 1:1 2× agarose:2×MEM containing 10 μg/ml trypsin was added in an amount of 2 mL per well. […]

Assay [1] deals with new influenza A (H1N1) (A/California/O4/09). In words: Plaque assay of tannic acid against new influenza A (H1N1) A/California/O4/09 on MDCK cells. How it is done: as §1, §2, §3, §4, §5
For assay [2], the system named is influenza A/WSN/33 (H1N1). In words: Plaque assay of tannic acid against influenza A/WSN/33 (H1N1) on MDCK cells. The method, then:
as §1, §2, §3, §4, §5

Setting [3] is: (1-treated/control)x100, MDCK plaque count.
Setting [4] is: virus incubated 10 min with tannic acid, MDCK plaque count.

For the compound `O=C(OC[C@H]1O[C@@H](OC(=O)c2cc(O)c(O)c(OC(=O)c3cc(O)c(O)c(O)c3)c2)[C@H](OC(=O)c2cc(O)c(O)c(OC(=O)c3cc(O)c(O)c(O)c3)c2)[C@@H](OC(=O)c2cc(O)c(O)c(OC(=O)c3cc(O)c(O)c(O)c3)c2)[C@@H]1OC(=O)c1cc(O)c(O)c(OC(=O)c2cc(O)c(O)c(O)c2)c1)c1cc(O)c(O)c(OC(=O)c2cc(O)c(O)c(O)c2)c1` [Tannic Acid, Tannic acid], the “Inhibitory Activity” value (in the assay on influenza A/PR/8 (H1N1) (setting [3]); in assay [1] (setting [3]); in assay [2] (setting [3])) was 99.99% each time. Further, the “Virus Titer” value (in the assay with influenza A/PR/8 (H1N1) (setting [4]); in assay [1] (setting [4]); in assay [2] (setting [4])) was “Not-detected” in each case.
